Here are results for 6 compounds from patent publication US10695283B2, “Extract of Greyia radlkoferi and use thereof” (UNIVERSITY OF PRETORIA, priority 2012, dated 2020).

In one assay the target is tyrosinase. The assay is described as follows: tyrosinase inhibition. The format is biochemical. The settings on record: for tyrosinase 50% inhibitory concentration (IC50) of the individual phenolic compound: compound used in isolation; for individual tyrosinase inhibitory capability: isolated compounds.
The test system of the next assay is melanocyte cells. The assay is described as follows: inhibition of melanin release by melanocyte cells in vitro. In kind it is cell-based. From the text: The inhibition of hyper-pigmentation is not restricted to inhibition at the enzyme level but melanin inhibition can also be achieved in vitro by the inhibition of melanin release by melanocyte cells.

With `COc1cc(O)c(C(=O)CCc2ccccc2)c(O)c1` [Compound C2, 2′,6′-dihydroxy-4′-methoxydihydrochalcone], on tyrosinase, the “tyrosinase 50% inhibitory concentration (IC50) of the individual phenolic compound” value worked out at 21.42 µg/mL and the “individual tyrosinase inhibitory capability” value was “exhibit individual tyrosinase inhibitory capabilities”. The melanin reduction in the assay with melanocyte cells (at 3.125 μg/ml) was 20%.

On to `O=C(/C=C/c1ccc(O)cc1)c1ccc(O)cc1O` [isoliquirtigenin, reference compound], for which, at tyrosinase (L-tyrosine and DOPA used as substrates), the “tyrosinase 50% inhibitory concentration (IC50)” value came out at 896.88 µg/mL.

As for `O=C(CCc1ccccc1)c1c(O)cc(O)cc1O` [Compound C3, 2′,4′,6′-trihydroxyhydrochalcone], on tyrosinase, the “tyrosinase 50% inhibitory concentration (IC50) of the individual phenolic compound” value was 17.86 µg/mL and the “individual tyrosinase inhibitory capability” value was “exhibit individual tyrosinase inhibitory capabilities”.

As to `O=c1c(O)c(-c2ccccc2)oc2cc(O)cc(O)c12` [Compound C4, 3,5,7-trihydroxyflavone], on tyrosinase, the “tyrosinase 50% inhibitory concentration (IC50) of the individual phenolic compound” value was found to be 2.23 µg/mL and the “individual tyrosinase inhibitory capability” value is “exhibit individual tyrosinase inhibitory capabilities”. For the same compound, in the assay with melanocyte cells (at concentrations as low as 3.1 μg/ml), the melanin inhibited result was “more than 50%”.

Regarding `O=c1c(-c2ccc(O)cc2)coc2cc(O)cc(O)c12` [Compound C5, 4′,5′7-trihydroxyisoflavone], in the assay on tyrosinase, the “individual tyrosinase inhibitory capability” value is “exhibit individual tyrosinase inhibitory capabilities”.

On to `O=C1C[C@@H](c2ccccc2)Oc2cc(O)cc(O)c21` [Compound C1, 5,7-dihidroxyflavone[(2S)-pinocembrin]], for which the “individual tyrosinase inhibitory capability” value in the assay with tyrosinase is listed as “exhibit individual tyrosinase inhibitory capabilities”.
